From US6861448B2, “NAD synthetase inhibitors and uses thereof” (priority 1998, dated 2005)
≈ marks a conversion by molar mass, not a printed value. Where “and” joins values, the source holds several entries; their conditions need not be identical. Equal values may be shown once. Where a name gives a salt, the structure may show the parent alone. Read-outs that look alike come from different tables or passages of the source.

How the values were obtained:
[1] = system: C. albicans; assay: MIC test, fungal growth inhibition; type: cell-based; conditions: in vitro; for MIC: Candida albicans, read-out: Potency to inhibit growth, C. albicans (MIC)
Method: (§1) The MIC test procedures conformed to the present protocol from the National Committee for Clinical Laboratory Standards (NCCLS), and were designed to provide basic antimicrobial data on compounds based on the MIC of the active component.
(§2) The test compounds were solubilized, diluted, and pipetted in duplicate into 10 mL sterile culture tubes and dried under vacuum.
(§3) Challenge organisms, specified were grown overnight at 37° C. in the appropriate medium (i.e., Mueller-Hinton Broth). These pure broth cultures were diluted 1:1,000 and 2.0 mL were added to the test compound tubes.
(§4) Appropriate media controls, challenge organism viability controls, and antibiotic control dilutions (i.e., ampicillin and nystatin), were prepared in the same manner as the test compounds and run against the challenge organisms.

[2] = system: P aeruginosa; assay: MIC test (NCCLS broth dilution), growth inhibition; type: cell-based; conditions: for MIC: Pseudomonas aeruginosa, read-out: Potency to inhibit growth, P aeruginosa (MIC)
Method: (§5) Antimicrobial Testing (P. aeruginosa, E. coli, B. subtilis, S. aureus, S. aureus (MCR), A. niger and M. flavescens.)
as §2, §3, §4

[3] = system: E. coli; assay: MIC test (NCCLS broth dilution), growth inhibition; type: cell-based; conditions: for MIC: Escherichia coli
Method: as §5, §2, §3, §4

[4] = target: NAD synthetase (Bacillus subtilis, UniProt P08164); assay: NAD synthetase coupled enzyme assay; type: biochemical
NAD synthetase, sequence (P08164 whole entry): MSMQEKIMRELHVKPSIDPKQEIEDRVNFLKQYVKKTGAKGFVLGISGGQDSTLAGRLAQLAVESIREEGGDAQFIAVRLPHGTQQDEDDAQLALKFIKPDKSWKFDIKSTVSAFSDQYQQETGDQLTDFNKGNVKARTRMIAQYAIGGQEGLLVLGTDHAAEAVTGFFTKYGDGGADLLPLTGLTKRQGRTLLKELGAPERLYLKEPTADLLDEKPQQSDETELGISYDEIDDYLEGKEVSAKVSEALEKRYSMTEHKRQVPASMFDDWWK
Text: This Example illustrates the NAD synthetase enzyme inhibiting activity of some compounds of the present invention. [drawing 48] The coupled assay—production of NAD was monitored through conversion to NADH by alcohol dehydrogenase. [NADH] was monitored by 2 parallel methods: the change in absorbance at 340 nm, and fluorescence at 460 nm (excitation 320 nm). […] Controls were included for determining inhibitor background, precipitation, and ADH inhibition.

[5] = system: B. subtilis; assay: microbe, parasite or virus in culture; type: cell-based; conditions: multiple values = two or more tests; for MIC: Bacillus subtilis, read-out: Minimal Inhibitory Concentration (MIC), B. subtilis
[6] = system: A. niger; assay: MIC test, fungal growth inhibition; type: cell-based; conditions: for MIC: Aspergillus niger, read-out: Potency to inhibit growth, A. niger (MIC)
Method: as §5, §1, §2, §3, §4

[7] = system: S. aureus (MCR); assay: microbe, parasite or virus in culture; type: cell-based; conditions: for Minimal Inhibitory Concentration (MIC), S. aureus (MCR): multiple values = two or more tests; for MIC: Staphylococcus aureus, read-out: Minimal Inhibitory Concentration (MIC), S. aureus (MCR), multiple values = two or more tests
[8] = system: S. aureus; assay: microbe, parasite or virus in culture; type: cell-based; conditions: multiple values = two or more tests; for MIC: Staphylococcus aureus, read-out: Minimal Inhibitory Concentration (MIC), S. aureus
[9] = system: M. flavescens; assay: microbe, parasite or virus in culture; type: cell-based; conditions: for MIC: Mycolicibacterium flavescens, read-out: Minimal Inhibitory Concentration (MIC), M. flavescens
[10] = system: Murine 3T3 cells; assay: Cytotoxicity in murine 3T3 cells (LDH release); type: cell-based; conditions: at 100 μM, 20 hrs
Method: (§6) Prior to conducting the assay, cell number, serum concentration, and medium conditions were optimized. Then using the assay conditions as described below, cells were seeded on day 1 and allowed to adhere for at least 1 hour. […] The initial solubilization of the test articles was in 50:50 methanol:water (v/v). […] On day 1, compounds 1439 and 1364 required sonication before solubility was reached). The cells plus compound were incubated overnight at 37° C., under a 5% CO2/[…] atmosphere. On day 2, the cells in the positive control wells were lysed with 0.9% Triton X-100 for 45 minutes to establish maximum levels of LDH release. The plates were centrifuged at 250× g for 5 minutes, the supernatants transferred to a new assay plate, and the LDH was measured. The assay plates were read at OD 490 nm.

[11] = system: rabbit primary renal cells (RPRC); assay: Cytotoxicity in rabbit primary renal cells (annexin V / PI flow cytometry); type: cell-based; conditions: 24 hr, mean ± SEM; for % CELLULAR NECROSIS (RPRC): at 300 μM; for % APOPTOSIS (RPRC): at peak effect (30 μM)
Method: Cytotoxicity in Rabbit Primary Renal Cells
Isolation of Proximal Tubules and Culture Conditions
Rabbit renal proximal tubules were isolated using the iron oxide perfusion method and grown in 35-mm tissue culture dishes under improved conditions. The cell culture medium was a 1:1 mixture of DMEM/Ham's F-12 (without D-glucose, phenol red, or sodium pyruvate) supplemented with 15 mM HEPES buffer, 2.5 mM L-gluatmine, 1 μM pyridoxine HCL, 15 mM sodium bicarbonate, and 6 mM lactate. Hydrocortisone (50 nM), selenium (5 ng/mL), human transferrin (5 μg/mL), bovine insulin (10 nM) and L-ascorbic acid-2-phosphate (50 μM) were added to fresh culture medium immediately prior to daily media change.
All numbered compounds were diluted in methanol and the final concentration of methanol in RPRC was less then 0.1% (v/v).
Measurement of RPRC Death
Cell death was monitored in RPRC by assessment of both annexin V and PI staining using flow cytometry. Briefly, RPRC were exposed to the indicated concentrations of compounds for 24 hr. Media was removed and RPRC washed twice with phosphate-buffered saline (PBS) and incubated in a binding buffer (10 mM HEPES, 140 mM NaCL, 5 mM KCL, 1 mM MgCl2, 1.8 mM CaCl2, pH=7.4) containing annexin V-FITC (1 μmol) and PI (25 μg/mL). After a 10 min incubation, RPRC were washed three times in the binding buffer and were released from the monolayers by gentle scrapping with a rubber policeman. Annexin V and PI staining were measured using a BectonDickson FacsCalibur flow cytometer (San Jose, Calif.). An equal number of cells (10,000) were counted for sample and apoptotic cells were defined as those that stained positive for annexin V-FITC only. RPRC undergoing necrotic cell death stained for PI only.
RPRC isolated from one rabbit represented one experiment (n=1). Data were analyzed and are reported as means±standard error of the mean of at least 3 separate experiments.

[12] = Solubilization of test articles in methanol:water; type: physicochemical; conditions: 50:50 methanol:water (v/v)
Method: as §6

[13] = system: Bacillus anthracis Sterne 34F2; assay: microbe, parasite or virus in culture; type: cell-based; conditions: Bacillus anthracis
[14] = NAD synthetase 2.0 μg/mL, 0.1 mM NaAD, 0.2 mM ATP, pH 8.5
[15] = in vitro, read-out: Potency to inhibit growth, E. coli (MIC)
[16] = STERNE34F2, read-out: approximate MIC, B. anthracis (first value)
[17] = STERNE34F2, read-out: approximate MIC, B. anthracis (second value)

Compound | Potency to inhibit growth, C. albicans (MIC) [1] | Potency to inhibit growth, P aeruginosa (MIC) ([2]; in vitro) | Potency to inhibit growth, E. coli (MIC) ([3]; in vitro) | IC50 [4, 14] [µM] | Minimal Inhibitory Concentration (MIC), B. subtilis [5] | Potency to inhibit growth, A. niger (MIC) ([6]; in vitro) | Minimal Inhibitory Concentration (MIC), S. aureus (MCR) [7] | Minimal Inhibitory Concentration (MIC), S. aureus [8] | IC50 [4] [µM] | MIC [7] [µg/mL] | MIC [9] [µg/mL] | MIC ([2]; in vitro) [µg/mL] | MIC [3, 15] [µg/mL] | MIC [8] [µg/mL] | further results
C[N+](C)(C)[C@@H](Cc1ccccc1)C(=O)NCCCCCCCCOc1ccc2c(c1)C(=O)CC(c1ccccc1)O2.[I-] (some centres unmarked) [Compound 1450] | <6.25 µg/mL | >50 µg/mL | >50 µg/mL | 31.7 | <3.13 µg/mL | >50 µg/mL | <3.13 µg/mL | <3.13 µg/mL | – | – | – | – | – | – | Minimal Inhibitory Concentration (MIC), M. flavescens [9]: <3.13 µg/mL
C[C@@H]1[C@H](O)[C@@H](C)/C=C/C=C/C=C/C=C/C=C/C=C/C=C/[C@H](O[C@@H]2O[C@H](C)[C@@H](O)[C@H](N)[C@@H]2O)C[C@@H]2O[C@](O)(C[C@@H](O)C[C@@H](O)[C@H](O)CC[C@@H](O)C[C@@H](O)CC(=O)O[C@H]1C)C[C@H](O)[C@H]2C(=O)O [Amphotericin B, reference compound] | <1.56 µg/mL | – | – | – | – | <1.56 µg/mL | – | – | – | – | – | – | – | – | –
COc1cccc(COc2ccc(OCCCCCCCCNC(=O)[C@H](Cc3ccccc3)[N+](C)(C)C)cc2)c1.[I-] [Compound 1423] | <3.13 µg/mL | >50 µg/mL | >50 µg/mL | 32.9 | <0.20 µg/mL | <50 µg/mL | <1.56 µg/mL | <1.56 µg/mL | – | – | – | – | – | – | –
C[N+](C)(C)[C@@H](Cc1ccccc1)C(=O)NCCCCCCCCn1ccc2cc(OCc3ccccc3)ccc21.[I-] [Compound 1447] | < 6.25 µg/mL and < 3.13 µg/mL | >50; >50 μg/mL | >50: <50 μg/mL | 22.1 | <1.56 µg/mL and <0.78 µg/mL | >50; >50 μg/mL | <1.56; μg/mL and <1.56 μg/mL | <1.56; μg/mL and <0.78 μg/mL | – | – | – | – | – | – | Minimal Inhibitory Concentration (MIC), M. flavescens [9]: <6.25 µg/mL
C[N+](C)(C)C(Cc1ccccc1)C(=O)NCCCCCCCCOc1ccc(OCc2ccccc2)cc1 (centres unmarked) [Compound 1364] | – | – | – | – | – | – | <1.56 µg/mL | – | 48.4 | < 0.78 | > 50 | – | – | – | % CELLULAR NECROSIS (FIBROBLASTS) [10]: 62%; MIC [2]: > 50 µg/mL; MIC ([3]; read-out: Potency to inhibit growth, E. coli (MIC), in vitro): < 50 µg/mL; MIC [6]: > 50 µg/mL; % CELLULAR NECROSIS (RPRC) [11]: 63 ± 2%; % APOPTOSIS (RPRC) [11]: 15 ± 3%; solubility of test article in methanol:water [12]: went into solution on day 1, but precipitated on day 2
N=C(N)N[C@@H](Cc1ccccc1)C(=O)NCCCCCCCCOc1ccc(OCc2ccccc2)cc1 [Compound 1503] | – | – | – | – | – | – | <1.56 µg/mL | – | 12.7 | < 0.78 | > 50 | > 50 | > 50 | < 0.78 | MIC [1]: > 50 µg/mL; MIC ([6]; in vitro): > 50 µg/mL; MIC [13, 16]: 8 µg/mL (≈ 15.5 µM); MIC [13, 17]: 16 µg/mL (≈ 31 µM)
N=C(N)N[C@@H](Cc1ccccc1)C(=O)NCCCCCCCCOc1ccc(OCc2ccccc2)cc1 (as salt: trifluoroacetic acid salt) [Compound 1503] | – | – | – | – | – | – | – | – | – | – | – | – | – | – | melting point: 108 to 113 °C
C[N+](C)(C)[C@H](COCCCCCCCCOc1ccc(OCc2ccccc2)cc1)Cc1ccccc1 [Compound 1439] | – | – | – | – | – | – | – | – | 22.7 | < 1.56 | < 12.5 | > 50 | < 12.5 | < 0.78 | % CELLULAR NECROSIS (FIBROBLASTS) [10]: 73%; MIC [1]: < 3.13 µg/mL; MIC [5]: < 0.39 µg/mL; MIC ([6]; in vitro): < 25 µg/mL; % CELLULAR NECROSIS (RPRC) [11]: 62 ± 2%; % APOPTOSIS (RPRC) [11]: 10 ± 1%; MIC [13, 16]: 4 µg/mL; MIC [13, 17]: 4 µg/mL; solubility of test article in methanol:water [12]: never went into solution at 50% organic
C[C@H]1c2cccc(O)c2C(=O)C2=C(O)[C@]3(O)C(=O)C(C(N)=O)=C(O)[C@@H](N(C)C)[C@@H]3[C@@H](O)[C@@H]21 [Doxycycline, reference compound] | – | – | – | – | – | – | – | – | – | < 30 | – | < 30 | < 1.56 | < 1.56 | MIC [5]: < 1.56 µg/mL
